Measurements published in US20090062361A1, “THERAPEUTIC HYDANTOINS” (ALLERGAN, INC., priority 2007, published 2009).
Blank lines part the entries; values can stand above or below the compound they belong to.

What was measured:
EP2 [1] = target: T1, EP2 (Homo sapiens, UniProt P43116); experiment: EP2 flipr functional assay; assay type: cell-based
From the text: (§1) United States Patent Application Publication No. 20070129552, incorporated by reference herein, describes the methods used to obtain the in vitro data in the table below.

EP2 [2] = target: T1, EP2; experiment: EP2 binding (Ki)
From the text: as §1

EP4 [3] = target: T2, EP4 (Homo sapiens, UniProt P35408); experiment: EP4 flipr functional assay; assay type: cell-based
T2 sequence (P35408 whole entry): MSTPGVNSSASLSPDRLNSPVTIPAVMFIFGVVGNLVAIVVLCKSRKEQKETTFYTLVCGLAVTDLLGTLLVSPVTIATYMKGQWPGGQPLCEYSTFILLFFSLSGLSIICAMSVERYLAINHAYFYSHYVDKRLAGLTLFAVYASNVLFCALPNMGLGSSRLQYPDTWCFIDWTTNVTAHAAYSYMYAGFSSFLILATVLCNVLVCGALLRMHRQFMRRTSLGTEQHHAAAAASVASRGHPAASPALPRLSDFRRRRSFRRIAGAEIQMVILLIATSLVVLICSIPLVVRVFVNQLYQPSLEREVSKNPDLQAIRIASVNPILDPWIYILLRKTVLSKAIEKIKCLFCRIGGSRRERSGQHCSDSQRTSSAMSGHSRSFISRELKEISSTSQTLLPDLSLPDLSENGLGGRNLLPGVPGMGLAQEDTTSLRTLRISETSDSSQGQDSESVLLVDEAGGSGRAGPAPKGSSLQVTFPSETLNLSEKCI
From the text: as §1

EP4 [4] = target: T2, EP4; experiment: EP4 binding (KI)
From the text: as §1

hEP3A = target: T3, hEP3A (Homo sapiens, UniProt P43115); experiment: Other receptors functional assay, hEP3A; assay type: cell-based
T3 sequence (P43115 1-390): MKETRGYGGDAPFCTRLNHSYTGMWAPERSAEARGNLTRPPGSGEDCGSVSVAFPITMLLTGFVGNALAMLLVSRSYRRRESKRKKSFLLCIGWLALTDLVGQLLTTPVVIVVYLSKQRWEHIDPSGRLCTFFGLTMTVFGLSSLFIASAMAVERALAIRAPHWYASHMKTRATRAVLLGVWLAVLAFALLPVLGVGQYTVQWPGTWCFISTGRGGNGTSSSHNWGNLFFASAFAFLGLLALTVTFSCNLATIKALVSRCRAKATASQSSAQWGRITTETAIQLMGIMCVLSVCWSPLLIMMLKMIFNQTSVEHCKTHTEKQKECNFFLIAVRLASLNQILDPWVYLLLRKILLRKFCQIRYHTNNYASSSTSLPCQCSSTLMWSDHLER
From the text: as §1

hDP = target: T4, hDP (Homo sapiens, UniProt Q13258); experiment: Other receptors functional assay, hDP; assay type: cell-based
T4 sequence (Q13258 1-359): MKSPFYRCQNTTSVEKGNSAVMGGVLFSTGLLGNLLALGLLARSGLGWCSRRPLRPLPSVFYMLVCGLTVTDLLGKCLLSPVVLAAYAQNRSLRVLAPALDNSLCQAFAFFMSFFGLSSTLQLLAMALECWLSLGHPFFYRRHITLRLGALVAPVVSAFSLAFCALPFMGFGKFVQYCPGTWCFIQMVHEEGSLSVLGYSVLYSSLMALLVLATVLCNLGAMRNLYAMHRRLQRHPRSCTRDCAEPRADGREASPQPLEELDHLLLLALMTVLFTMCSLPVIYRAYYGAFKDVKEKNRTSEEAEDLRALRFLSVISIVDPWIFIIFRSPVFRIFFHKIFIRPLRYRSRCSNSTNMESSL
From the text: as §1

normotensive dogs = experiment: Intraocular pressure and ocular surface hyperemia in normotensive dogs; assay type: in vivo; details: 0.003%, once daily for 5 days
Procedure: (§2) U.S. Pat. No. 7,091,231 describes the methods used to carry out the tests reported below.
(§3) Isopropyl 5-(3-(3-(4-(1-hydroxyhexyl)phenyl)-2,5-dioxoimidazolidin-4-yl)propyl)thiophene-2-carboxylate (31) was tested in normotensive dogs at 0.003%, dosing once daily for 5 days. The maximum intraocular pressure (IOP) decrease from baseline was 7.7 mmHg (45%) at 102 h; the maximum ocular surface hyperemia (OSH) score was 2.5 at 26 h. This compound was also tested in laser-induced hypertensive monkeys, using one single day dose. At 0.003%, the maximum IOP decrease from baseline was 23 mmHg (53%) at 24 h.
(§4) Isopropyl 5-(3-(3-(4-hexanoylphenyl)-2,5-dioxoimidazolidin-4-yl)propyl)thiophene-2-carboxylate (32) was tested in normotensive dogs at 0.003%, dosing once daily for 5 days. The maximum intraocular pressure (IOP) decrease from baseline was 8.9 mmHg (48%) at 54 h; the maximum ocular surface hyperemia (OSH) score was 2.3 at 54 h. This compound was also tested in laser-induced hypertensive monkeys, using one single day dose. At 0.003%, the maximum IOP decrease from baseline was 19 mmHg (49%) at 24 h.

[5] = test system: laser-induced hypertensive monkeys; experiment: Intraocular pressure in laser-induced hypertensive monkeys; assay type: in vivo; details: 0.003%, one single day dose, at 24 h
Procedure: as §2, §3, §4

T1 sequence (P43116 whole entry): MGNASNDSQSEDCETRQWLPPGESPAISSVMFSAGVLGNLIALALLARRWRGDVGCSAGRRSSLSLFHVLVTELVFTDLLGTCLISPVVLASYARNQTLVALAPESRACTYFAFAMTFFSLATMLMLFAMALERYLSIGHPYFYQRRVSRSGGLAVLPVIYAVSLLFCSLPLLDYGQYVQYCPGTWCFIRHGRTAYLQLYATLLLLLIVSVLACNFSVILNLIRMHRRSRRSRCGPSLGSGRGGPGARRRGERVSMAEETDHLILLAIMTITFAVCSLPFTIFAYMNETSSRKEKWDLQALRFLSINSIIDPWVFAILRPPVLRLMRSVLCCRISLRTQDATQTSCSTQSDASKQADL

Compound: CCCCCC(=O)c1ccc(N2C(=O)NC(=O)C2CCCc2ccc(C(=O)O)s2)cc1 (stereo not shown) [Example 1, 5-(3-(3-(4-hexanoylphenyl)-2,5-dioxoimidazolidin-4-yl)propyl)thiophene-2-carboxylic acid]
EC50 (EP2 [1]): 17 nM | Ki (EP2 [2]): 4.5 nM | EC50 (EP4 [3]): 17500 nM | Ki (EP4 [4]): 3240 nM | EC50 (hEP3A): 131 nM | EC50 (hDP): 8810 nM

Compound: CCCCC[C@H](O)c1ccc(N2C(=O)NC(=O)[C@H]2CCCc2ccc(C(=O)O)s2)cc1 [Example 8, 5-(3-((R)-3-(4-((S)-1-hydroxyhexyl)phenyl)-2,5-dioxoimidazolidin-4-yl)propyl)thiophene-2-carboxylic acid]
EC50 (EP2 [1]): 23 nM | Ki (EP2 [2]): 4 nM | Ki (EP4 [4]): 7190 nM | EC50 (hEP3A): 29 nM | EC50 (hDP): > 10000 nM

Compound: CCCCCC(O)c1ccc(N2C(=O)NC(=O)C2CCCc2ccc(C(=O)OC(C)C)s2)cc1 (stereo not shown) [Example 31, Isopropyl 5-(3-(3-(4-(1-hydroxyhexyl)phenyl)-2,5-dioxoimidazolidin-4-yl)propyl)thiophene-2-carboxylate]
maximum ocular surface hyperemia (OSH) score (normotensive dogs; at 26 h): 2.5 | maximum intraocular pressure (IOP) decrease from baseline (normotensive dogs; at 102 h): 7.7 mmHg | maximum intraocular pressure (IOP) decrease from baseline (percent) (normotensive dogs; at 102 h): 45% | maximum IOP decrease from baseline [5]: 23 mmHg | maximum IOP decrease from baseline (percent) [5]: 53%

Compound: CCCCCC(=O)c1ccc(N2C(=O)NC(=O)C2CCCc2ccc(C(=O)OC(C)C)s2)cc1 (stereo not shown) [Example 32, Isopropyl 5-(3-(3-(4-hexanoylphenyl)-2,5-dioxoimidazolidin-4-yl)propyl)thiophene-2-carboxylate]
maximum intraocular pressure (IOP) decrease from baseline (normotensive dogs; at 54 h): 8.9 mmHg | maximum intraocular pressure (IOP) decrease from baseline (percent) (normotensive dogs; at 54 h): 48% | maximum ocular surface hyperemia (OSH) score (normotensive dogs; at 54 h): 2.3 | maximum IOP decrease from baseline [5]: 19 mmHg | maximum IOP decrease from baseline (percent) [5]: 49%

Next, values leading:

EC50 (EP2 [1]): 3.5 nM | Ki (EP2 [2]): 5 nM | Ki (EP4 [4]): > 10000 nM | EC50 (hEP3A): 10 nM | EC50 (hDP): 17400 nM
Compound: CCCCC[C@H](O)c1ccc(N2C(=O)NC(=O)C2CCCc2ccc(C(=O)O)s2)cc1 (stereo in doubt) [Example 2, 5-(3-(3-(4-(1-hydroxyhexyl)phenyl)-2,5-dioxoimidazolidin-4-yl)propyl)thiophene-2-carboxylic acid]

EC50 (EP2 [1]): 1 nM | Ki (EP2 [2]): 1 nM | EC50 (EP4 [3]): 2000 nM | Ki (EP4 [4]): 7210 nM | EC50 (hEP3A): 15 nM | EC50 (hDP): 19300 nM
Compound: CCCCC[C@@H](O)c1ccc(N2C(=O)NC(=O)[C@@H]2CCCc2ccc(C(=O)O)s2)cc1 [Example 10, 5-(3-((S)-3-(4-((R)-1-hydroxyhexyl)phenyl)-2,5-dioxoimidazolidin-4-yl)propyl)thiophene-2-carboxylic acid]

EC50 (EP2 [1]): 4 nM | Ki (EP2 [2]): 2 nM | Ki (EP4 [4]): 5070 nM | EC50 (hEP3A): 5 nM | EC50 (hDP): > 10000 nM
Compound: CCCCC[C@H](O)c1ccc(N2C(=O)NC(=O)[C@@H]2CCCc2ccc(C(=O)O)s2)cc1 [Example 7, 5-(3-((S)-3-(4-((S)-1-hydroxyhexyl)phenyl)-2,5-dioxoimidazolidin-4-yl)propyl)thiophene-2-carboxylic acid]
